Assay results as given in PubChem BioAssay (NCI).
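Method: 48-hour compound exposure of cells in 96-well plates, five concentrations, linear interpolation of endpoints. At the GI50, growth is halved. TGI: concentration producing complete growth inhibition.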

What was measured:
Assay in all cases: inhibition of tumour cell growth, NCI panel, 48 h
A498 renal = system: A498 renal
OVCAR-4 ovarian = system: OVCAR-4 ovarian
786-0 renal = system: 786-0 renal
NCI-H522 lung = system: NCI-H522 lung
CCRF-CEM leukemia = system: CCRF-CEM leukemia
IGROV1 ovarian = system: IGROV1 ovarian
TK-10 renal = system: TK-10 renal
HS 578T breast = system: HS 578T breast
NCI/ADR-RES ovarian = system: NCI/ADR-RES ovarian
U251 CNS = system: U251 CNS
K-562 leukemia = system: K-562 leukemia
T-47D breast = system: T-47D breast
UO-31 renal = system: UO-31 renal
ACHN renal = system: ACHN renal
MDA-MB-231 breast = system: MDA-MB-231 breast
KM12 colon = system: KM12 colon
SW-620 colon = system: SW-620 colon
HL-60(TB) leukemia = system: HL-60(TB) leukemia
MOLT-4 leukemia = system: MOLT-4 leukemia
CAKI-1 renal = system: CAKI-1 renal
RPMI-8226 leukemia = system: RPMI-8226 leukemia
HOP-62 NSCLC = system: HOP-62 NSCLC
SK-OV-3 ovarian = system: SK-OV-3 ovarian
HT29 colon = system: HT29 colon
UACC-62 melanoma = system: UACC-62 melanoma
SNB-75 CNS = system: SNB-75 CNS
HCT-116 colon = system: HCT-116 colon
MDA-MB-435 = system: MDA-MB-435
OVCAR-3 ovarian = system: OVCAR-3 ovarian
M14 melanoma = system: M14 melanoma
DU-145 prostate = system: DU-145 prostate
SK-MEL-28 melanoma = system: SK-MEL-28 melanoma
SN12C renal = system: SN12C renal
HOP-92 NSCLC = system: HOP-92 NSCLC
MCF7 breast = system: MCF7 breast
SK-MEL-2 melanoma = system: SK-MEL-2 melanoma
OVCAR-8 ovarian = system: OVCAR-8 ovarian
PC-3 prostate = system: PC-3 prostate
SF-539 CNS = system: SF-539 CNS
SF-295 CNS = system: SF-295 CNS
RXF 393 renal = system: RXF 393 renal
NCI-H226 lung = system: NCI-H226 lung
COLO 205 colon = system: COLO 205 colon
EKVX NSCLC = system: EKVX NSCLC
NCI-H23 lung = system: NCI-H23 lung
SR leukemia = system: SR leukemia
LOX IMVI melanoma = system: LOX IMVI melanoma
UACC-257 melanoma = system: UACC-257 melanoma
HCT-15 colon = system: HCT-15 colon
A549 NSCLC = system: A549 NSCLC
SF-268 CNS = system: SF-268 CNS
SNB-19 CNS = system: SNB-19 CNS
HCC-2998 colon = system: HCC-2998 colon
OVCAR-5 ovarian = system: OVCAR-5 ovarian
NCI-H460 lung = system: NCI-H460 lung
BT-549 breast = system: BT-549 breast
SK-MEL-5 melanoma = system: SK-MEL-5 melanoma

SMILES: COc1cccc(C2CC(=O)c3cccn32)c1 (stereo not drawn)
- TGI (A498 renal): > 100 µM
- TGI (OVCAR-4 ovarian): > 100 µM
- TGI (786-0 renal): > 100 µM
- TGI (NCI-H522 lung): > 100 µM
- TGI (CCRF-CEM leukemia): > 100 µM
- TGI (IGROV1 ovarian): > 100 µM
- TGI (TK-10 renal): > 100 µM
- TGI (HS 578T breast): > 100 µM
- TGI (NCI/ADR-RES ovarian): > 100 µM
- TGI (U251 CNS): > 100 µM
- TGI (K-562 leukemia): > 100 µM
- TGI (T-47D breast): > 100 µM
- TGI (UO-31 renal): > 100 µM
- TGI (ACHN renal): > 100 µM
- TGI (MDA-MB-231 breast): > 100 µM
- TGI (KM12 colon): > 100 µM
- TGI (SW-620 colon): > 100 µM
- TGI (HL-60(TB) leukemia): 96 µM
- TGI (MOLT-4 leukemia): > 100 µM
- TGI (CAKI-1 renal): > 100 µM
- TGI (RPMI-8226 leukemia): > 100 µM
- TGI (HOP-62 NSCLC): > 100 µM
- TGI (SK-OV-3 ovarian): > 100 µM
- TGI (HT29 colon): > 100 µM
- TGI (UACC-62 melanoma): > 100 µM
- TGI (SNB-75 CNS): > 100 µM
- TGI (HCT-116 colon): > 100 µM
- TGI (MDA-MB-435): > 100 µM
- TGI (OVCAR-3 ovarian): > 100 µM
- TGI (M14 melanoma): > 100 µM
- TGI (DU-145 prostate): > 100 µM
- TGI (SK-MEL-28 melanoma): > 100 µM
- TGI (SN12C renal): > 100 µM
- TGI (HOP-92 NSCLC): > 100 µM
- TGI (MCF7 breast): > 100 µM
- TGI (SK-MEL-2 melanoma): > 100 µM
- TGI (OVCAR-8 ovarian): > 100 µM
- TGI (PC-3 prostate): > 100 µM
- TGI (SF-539 CNS): > 100 µM
- TGI (SF-295 CNS): > 100 µM
- TGI (RXF 393 renal): > 100 µM
- TGI (NCI-H226 lung): > 100 µM
- TGI (COLO 205 colon): > 100 µM
- TGI (EKVX NSCLC): > 100 µM
- TGI (NCI-H23 lung): > 100 µM
- TGI (SR leukemia): > 100 µM
- TGI (LOX IMVI melanoma): > 100 µM
- TGI (UACC-257 melanoma): > 100 µM
- TGI (HCT-15 colon): > 100 µM
- TGI (A549 NSCLC): > 100 µM
- TGI (SF-268 CNS): > 100 µM
- TGI (SNB-19 CNS): > 100 µM
- TGI (HCC-2998 colon): > 100 µM
- TGI (OVCAR-5 ovarian): > 100 µM

SMILES: O=C(c1ccccc1)c1ccccc1C(=O)c1ccccc1
- GI50 (A498 renal): 4.34 µM
- TGI (A498 renal): > 100 µM
- GI50 (OVCAR-4 ovarian): 36.7 µM
- TGI (OVCAR-4 ovarian): > 100 µM
- GI50 (786-0 renal): 50.6 µM
- TGI (786-0 renal): > 100 µM
- GI50 (CCRF-CEM leukemia): 42.9 µM
- TGI (CCRF-CEM leukemia): > 100 µM
- GI50 (NCI-H460 lung): 35.9 µM
- TGI (NCI-H460 lung): > 100 µM
- GI50 (TK-10 renal): 32.8 µM
- TGI (TK-10 renal): > 100 µM
- GI50 (NCI/ADR-RES ovarian): 27.4 µM
- TGI (NCI/ADR-RES ovarian): > 100 µM
- GI50 (U251 CNS): 39.4 µM
- TGI (U251 CNS): > 100 µM
- GI50 (BT-549 breast): 32 µM
- TGI (BT-549 breast): > 100 µM
- GI50 (K-562 leukemia): 41 µM
- TGI (K-562 leukemia): > 100 µM
- GI50 (T-47D breast): 47.2 µM
- TGI (T-47D breast): > 100 µM
- GI50 (ACHN renal): 45.7 µM
- TGI (ACHN renal): > 100 µM
- GI50 (MDA-MB-231 breast): 65.5 µM
- TGI (MDA-MB-231 breast): > 100 µM
- GI50 (KM12 colon): 36.2 µM
- TGI (KM12 colon): > 100 µM
- GI50 (SW-620 colon): 55.8 µM
- TGI (SW-620 colon): > 100 µM
- GI50 (HL-60(TB) leukemia): 53.7 µM
- TGI (HL-60(TB) leukemia): > 100 µM
- GI50 (MOLT-4 leukemia): 32.7 µM
- TGI (MOLT-4 leukemia): > 100 µM
- GI50 (CAKI-1 renal): 19.4 µM
- TGI (CAKI-1 renal): 70.6 µM
- GI50 (HOP-62 NSCLC): > 100 µM
- TGI (HOP-62 NSCLC): > 100 µM
- GI50 (SK-OV-3 ovarian): 50.3 µM
- TGI (SK-OV-3 ovarian): > 100 µM
- GI50 (SK-MEL-5 melanoma): 22.5 µM
- TGI (SK-MEL-5 melanoma): 67.1 µM
- GI50 (HT29 colon): 45.3 µM
- TGI (HT29 colon): > 100 µM
- GI50 (UACC-62 melanoma): 29.7 µM
- TGI (UACC-62 melanoma): > 100 µM
- GI50 (SNB-75 CNS): 45.5 µM
- TGI (SNB-75 CNS): > 100 µM
- GI50 (HCT-116 colon): 29.8 µM
- TGI (HCT-116 colon): > 100 µM
- GI50 (MDA-MB-435): 28.7 µM
- TGI (MDA-MB-435): > 100 µM
- GI50 (OVCAR-3 ovarian): 41 µM
- TGI (OVCAR-3 ovarian): > 100 µM
- GI50 (M14 melanoma): 31.9 µM
- TGI (M14 melanoma): > 100 µM
- GI50 (DU-145 prostate): 88.1 µM
- TGI (DU-145 prostate): > 100 µM
- GI50 (SK-MEL-28 melanoma): 30.9 µM
- TGI (SK-MEL-28 melanoma): > 100 µM
- GI50 (SN12C renal): > 100 µM
- TGI (SN12C renal): > 100 µM
- GI50 (HOP-92 NSCLC): 16.4 µM
- TGI (HOP-92 NSCLC): 99.4 µM
- GI50 (MCF7 breast): 1.76 µM
- TGI (MCF7 breast): 10.9 µM
- GI50 (SK-MEL-2 melanoma): 58.6 µM
- TGI (SK-MEL-2 melanoma): > 100 µM
- GI50 (OVCAR-8 ovarian): 34.5 µM
- TGI (OVCAR-8 ovarian): > 100 µM
- GI50 (PC-3 prostate): 37.7 µM
- TGI (PC-3 prostate): > 100 µM
- GI50 (SF-539 CNS): 77.5 µM
- TGI (SF-539 CNS): > 100 µM
- GI50 (SF-295 CNS): 31 µM
- TGI (SF-295 CNS): > 100 µM
- GI50 (RXF 393 renal): 47.8 µM
- TGI (RXF 393 renal): > 100 µM
- GI50 (NCI-H226 lung): 52.3 µM
- TGI (NCI-H226 lung): > 100 µM
- GI50 (COLO 205 colon): 79.5 µM
- TGI (COLO 205 colon): > 100 µM
- GI50 (EKVX NSCLC): 28.6 µM
- TGI (EKVX NSCLC): > 100 µM
- GI50 (NCI-H23 lung): 34 µM
- TGI (NCI-H23 lung): > 100 µM
- GI50 (SR leukemia): 41.7 µM
- TGI (SR leukemia): > 100 µM
- GI50 (LOX IMVI melanoma): 46 µM
- TGI (LOX IMVI melanoma): > 100 µM
- GI50 (UACC-257 melanoma): 40.5 µM
- TGI (UACC-257 melanoma): > 100 µM
- GI50 (HCT-15 colon): 50 µM
- TGI (HCT-15 colon): > 100 µM
- GI50 (A549 NSCLC): 50 µM
- TGI (A549 NSCLC): > 100 µM
- GI50 (SF-268 CNS): 63.4 µM
- TGI (SF-268 CNS): > 100 µM
- GI50 (SNB-19 CNS): > 100 µM
- TGI (SNB-19 CNS): > 100 µM
- GI50 (HCC-2998 colon): 32.3 µM
- TGI (HCC-2998 colon): 85.3 µM
- GI50 (OVCAR-5 ovarian): > 100 µM
- TGI (OVCAR-5 ovarian): > 100 µM

SMILES: Brc1ccc2c(c1)c(-c1nc(-c3c[nH]c4ncccc34)cs1)cn2CCCN1CCCCC1
- GI50 (A498 renal): 2.32 µM
- TGI (A498 renal): 9.16 µM
- GI50 (OVCAR-4 ovarian): 2.24 µM
- TGI (OVCAR-4 ovarian): 4.88 µM
- GI50 (NCI-H460 lung): 1.78 µM
- TGI (NCI-H460 lung): 3.37 µM
- GI50 (HS 578T breast): 2.13 µM
- TGI (HS 578T breast): 5.55 µM
- GI50 (KM12 colon): 1.82 µM
- TGI (KM12 colon): 3.48 µM
- GI50 (SW-620 colon): 1.75 µM
- TGI (SW-620 colon): 3.31 µM
- GI50 (HL-60(TB) leukemia): 1.9 µM
- TGI (HL-60(TB) leukemia): 4.57 µM
- GI50 (SK-MEL-5 melanoma): 1.74 µM
- TGI (SK-MEL-5 melanoma): 3.14 µM
- GI50 (SNB-75 CNS): 1.85 µM
- TGI (SNB-75 CNS): 4.59 µM
- GI50 (MDA-MB-435): 1.86 µM
- TGI (MDA-MB-435): 3.49 µM
- GI50 (OVCAR-3 ovarian): 1.89 µM
- TGI (OVCAR-3 ovarian): 3.43 µM
- GI50 (M14 melanoma): 1.79 µM
- TGI (M14 melanoma): 3.39 µM
- GI50 (DU-145 prostate): 1.77 µM
- TGI (DU-145 prostate): 3.18 µM
- GI50 (MCF7 breast): 1.62 µM
- TGI (MCF7 breast): 3.11 µM
- GI50 (NCI-H226 lung): 1.89 µM
- TGI (NCI-H226 lung): 5.01 µM
- GI50 (NCI-H23 lung): 1.75 µM
- TGI (NCI-H23 lung): 3.37 µM
- GI50 (LOX IMVI melanoma): 1.68 µM
- TGI (LOX IMVI melanoma): 3.08 µM
- GI50 (UACC-257 melanoma): 1.9 µM
- TGI (UACC-257 melanoma): 3.5 µM
- GI50 (HCT-15 colon): 1.66 µM
- TGI (HCT-15 colon): 3.08 µM
- GI50 (HCC-2998 colon): 1.82 µM
- TGI (HCC-2998 colon): 3.41 µM
